Results reported in patent US20210179666A1, “CYCLIC PEPTIDES AND METHODS OF USE THEREOF” (Regents of the University of Minnesota, priority 2019, published 2021).
Several values for one entry are separate records, joined by “and”; a condition that tells them apart may be missing. Equal entries are not always repeated. Where two headings read alike, the source gives them in different places. Square brackets hold non-standard residues; d marks the D form. Peptide text beside a SMILES is read from it. Gly(N-(CH2)3-guanidino) = N=C(N)NCCCNCC(=O)O; Dap = NC[C@H](N)C(=O)O; Sar = CNCC(=O)O

How the values were obtained:
mMC1R [1] = target: T1, mMC1R (Mus musculus, UniProt Q01727); test: cAMP AlphaScreen bioassay, HEK293 cells stably expressing mMC1R; details: for EC50: read-out: mMC1R EC50, ± SEM, >100,000 = no agonist activity up to 100 μM; for mMC1R percent maximal stimulatory response: @ 100 μM, EC50 not determinable
mMC3R [2] = target: T2, mMC3R (Mus musculus, UniProt P33033); details: for mMC3R pA2: antagonist, Schild analysis with NDP-MSH
mMC5R = mMC5R (Mus musculus, UniProt P41149); details: for mMC5R pA2: antagonist, Schild analysis with NDP-MSH, ± SEM
hMC4R [3] = target: T3, hMC4R (Homo sapiens, UniProt P32245); test: cAMP AlphaScreen bioassay, HEK293 cells stably expressing hMC4R; type: cell-based; set-up: expressed in transfected cells; details: for Observed Inverse Agonism?: hMC4R, cAMP; for hMC4R pA2: antagonist pA2, Schild analysis with agonist NDP-MSH, ± SEM, <5.0 = no antagonist potency up to 10,000 nM
mMC4R [4] = target: T4, mMC4R (Mus musculus, UniProt P56450); details: ± SEM; for mMC4R pA2: Example 1, antagonist, Schild analysis with NDP-MSH, <5.0 = no antagonist potency up to 10,000 nM
mMC4R [5] = target: T4, mMC4R; test: 125I-NDP-MSH competitive binding assay, transfected HEK293 cells, mMC4R; details: binding IC50 versus control 1 (Asn) or 2 (Dap)
hMC4R [6] = target: T3, hMC4R; test: 125I-NDP-MSH competitive binding assay, transfected HEK293 cells, hMC4R; details: binding IC50 versus control 1 (Asn) or 2 (Dap)
mMC1R [7] = target: T1, mMC1R; test: 125I-NDP-MSH competitive binding assay, transfected HEK293 cells, mMC1R; details: binding IC50 versus control 1 (Asn) or 2 (Dap)
mMC3R [8] = target: T2, mMC3R; test: 125I-NDP-MSH competitive binding assay, transfected HEK293 cells, mMC3R; details: binding IC50 versus control 1 (Asn) or 2 (Dap)
[9] = Example 2 (Table 7, first EC50 column)
[10] = Example 2, ± SEM, <5.5 = no antagonist potency up to 10,000 nM
[11] = Example 2, basal to plateau signal, sigmoidal dose-response
[12] = Example 1, ± SEM, <5.0 = no antagonist potency up to 10,000 nM

T2 sequence (P33033 whole entry): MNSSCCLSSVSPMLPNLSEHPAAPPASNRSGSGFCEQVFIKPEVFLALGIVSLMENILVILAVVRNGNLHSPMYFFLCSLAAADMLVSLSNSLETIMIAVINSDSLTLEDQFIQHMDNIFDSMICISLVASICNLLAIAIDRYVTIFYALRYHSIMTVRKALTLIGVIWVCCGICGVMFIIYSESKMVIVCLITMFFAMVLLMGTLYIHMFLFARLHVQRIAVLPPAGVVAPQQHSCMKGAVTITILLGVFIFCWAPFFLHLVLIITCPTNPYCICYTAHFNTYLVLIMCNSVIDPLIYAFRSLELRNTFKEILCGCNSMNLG
T3 sequence (P32245 whole entry): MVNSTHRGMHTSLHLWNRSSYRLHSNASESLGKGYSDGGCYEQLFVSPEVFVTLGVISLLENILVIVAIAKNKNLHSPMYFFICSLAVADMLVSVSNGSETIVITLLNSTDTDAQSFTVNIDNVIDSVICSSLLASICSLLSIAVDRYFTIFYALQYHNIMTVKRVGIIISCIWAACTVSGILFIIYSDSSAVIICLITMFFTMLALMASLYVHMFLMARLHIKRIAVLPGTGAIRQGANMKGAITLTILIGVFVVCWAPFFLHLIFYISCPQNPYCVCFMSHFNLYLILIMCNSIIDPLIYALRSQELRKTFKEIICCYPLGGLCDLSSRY
T1 sequence (Q01727 whole entry): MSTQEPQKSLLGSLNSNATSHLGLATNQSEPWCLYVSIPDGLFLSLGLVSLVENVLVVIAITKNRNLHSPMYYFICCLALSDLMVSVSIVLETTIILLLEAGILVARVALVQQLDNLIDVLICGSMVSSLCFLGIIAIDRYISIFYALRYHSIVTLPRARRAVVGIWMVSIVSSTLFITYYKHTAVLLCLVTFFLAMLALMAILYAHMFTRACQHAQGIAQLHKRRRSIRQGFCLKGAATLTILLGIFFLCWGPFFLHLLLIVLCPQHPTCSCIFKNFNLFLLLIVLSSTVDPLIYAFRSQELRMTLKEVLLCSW
T4 sequence (P56450 whole entry): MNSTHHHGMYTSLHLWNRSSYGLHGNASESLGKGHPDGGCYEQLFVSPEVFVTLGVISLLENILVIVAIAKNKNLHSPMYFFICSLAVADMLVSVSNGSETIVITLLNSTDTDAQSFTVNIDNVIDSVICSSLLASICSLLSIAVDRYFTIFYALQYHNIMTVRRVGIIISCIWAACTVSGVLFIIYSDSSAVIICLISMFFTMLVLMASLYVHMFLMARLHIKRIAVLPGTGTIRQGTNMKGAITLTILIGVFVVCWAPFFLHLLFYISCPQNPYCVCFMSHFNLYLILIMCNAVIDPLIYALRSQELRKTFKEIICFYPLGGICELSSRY
Sequence of mMC5R (P41149 whole entry): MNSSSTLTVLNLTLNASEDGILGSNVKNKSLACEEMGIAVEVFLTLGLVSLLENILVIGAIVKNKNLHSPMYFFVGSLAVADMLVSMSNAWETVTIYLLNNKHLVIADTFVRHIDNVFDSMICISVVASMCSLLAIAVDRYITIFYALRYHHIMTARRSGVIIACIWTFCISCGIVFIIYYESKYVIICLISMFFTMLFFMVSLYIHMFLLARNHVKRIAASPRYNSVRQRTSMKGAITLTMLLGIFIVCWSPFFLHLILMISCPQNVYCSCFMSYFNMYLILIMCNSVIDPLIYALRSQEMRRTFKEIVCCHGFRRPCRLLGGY

Compound: C[C@@H]1NC(=O)[C@H](CC(N)=O)NC(=O)[C@H](Cc2ccccc2)NC(=O)[C@H](Cc2ccccc2)NC(=O)CN(CCCNC(=N)N)C(=O)[C@@H]2CCCN2C(=O)[C@H]2CCCN2C(=O)[C@H](Cc2ccccc2)NC1=O [MDE7-26-1c, c[Pro-NArg-Phe-Phe-Asn-Ala-Phe-DPro]] (cyclo(P[Gly(N-(CH2)3-guanidino)]FFNAF[dP]))
- mMC1R pharmacology observed (Partial Agonist) (mMC1R [1]; Example 2): Partial
- mMC1R partial agonist, percentage of activation relative to NDP-MSH (mMC1R [1]; Example 2, maximal signal): 50% NDP-MSH

Compound: CN1CC(=O)N[C@@H](Cc2ccccc2)C(=O)N2CCC[C@@H]2C(=O)N2CCC[C@H]2C(=O)N[C@@H](CCCNC(=N)N)C(=O)N[C@@H](Cc2ccccc2)C(=O)N[C@@H](Cc2ccccc2)C(=O)N[C@@H](CC(N)=O)C1=O [MDE7-26-4c, c[Pro-Arg-Phe-Phe-Asn-NAla-Phe-DPro]] (cyclo(PRFFN[Sar]F[dP]))
- EC50 (mMC1R [1]; [9]): 1000 nM

Compound: C[C@@H]1NC(=O)[C@H](CC(N)=O)NC(=O)[C@H](Cc2ccccc2)NC(=O)[C@H](Cc2ccccc2)NC(=O)[C@H](CCCNC(=N)N)NC(=O)[C@@H]2CCCN2C(=O)[C@H]2CCCN2C(=O)CN(Cc2ccccc2)C1=O [MDE7-26-5c, c[Pro-Arg-Phe-Phe-Asn-Ala-NPhe-DPro]]
- mMC1R percent maximal stimulatory response (mMC1R [1]; Example 2): 85% @
- mMC3R percent maximal stimulatory response (mMC3R [2]; Example 2, @ 100 μM): 60% @

Compound: C[C@@H]1NC(=O)[C@H](CN)NC(=O)[C@H](Cc2ccccc2)NC(=O)[C@H](Cc2ccccc2)NC(=O)[C@H](CCCNC(=N)N)NC(=O)[C@@H]2CCCN2C(=O)[C@H]2CCCN2C(=O)CN(Cc2ccccc2)C1=O [MDE8-108-7c, c[Pro-Arg-Phe-Phe-Dap-Ala-NPhe-DPro]]
- mMC5R inverse agonist, percent decrease from basal (mMC5R): −10%

Compound: C[C@@H]1NC(=O)[C@H](CN)NC(=O)[C@H](Cc2ccccc2)NC(=O)CN(Cc2ccccc2)C(=O)[C@H](CCCNC(=N)N)NC(=O)[C@@H]2CCCN2C(=O)[C@H]2CCCN2C(=O)[C@H](Cc2ccccc2)NC1=O [MDE9-32c, c[Pro-Arg-NPhe-Phe-Dap-Ala-Phe-DPro]]
- mMC1R pharmacology observed (Partial Agonist) (mMC1R [1]; Example 2): Partial
- mMC5R pharmacology observed (Partial Agonist / Inverse Agonist) (mMC5R; Example 2): Partial
- mMC3R pA2 (mMC3R [2]; [10]): 6.9 ± 0.3

Compound: C[C@@H]1NC(=O)[C@H](CC(N)=O)NC(=O)[C@H](Cc2ccccc2)NC(=O)CN(Cc2ccccc2)C(=O)[C@H](CCCNC(=N)N)NC(=O)[C@@H]2CCCN2C(=O)[C@H]2CCCN2C(=O)[C@H](Cc2ccccc2)NC1=O [MDE9-77c, c[Pro-Arg-NPhe-Phe-Asn-Ala-Phe-DPro]]
- EC50 (mMC1R [1]; [9]): 240 nM
- mMC5R pharmacology observed (Partial Agonist / Inverse Agonist) (mMC5R; Example 2): Inverse
- mMC5R inverse agonist, percentage change from basal (mMC5R; Example 2, @ 100 μM, no sigmoidal dose-response curve): −10% @
- mMC3R pA2 (mMC3R [2]; [10]): 5.8 ± 0.1

Compound: C[C@@H]1NC(=O)[C@H](CC(N)=O)NC(=O)CN(Cc2ccccc2)C(=O)[C@H](Cc2ccccc2)NC(=O)[C@H](CCCNC(=N)N)NC(=O)[C@@H]2CCCN2C(=O)[C@H]2CCCN2C(=O)[C@H](Cc2ccccc2)NC1=O [MDE9-88c, c[Pro-Arg-Phe-NPhe-Asn-Ala-Phe-DPro]]
- mMC1R pharmacology observed (Partial Agonist) (mMC1R [1]; Example 2): Partial
- mMC5R pharmacology observed (Partial Agonist / Inverse Agonist) (mMC5R; Example 2): Inverse
- mMC5R pA2 (mMC5R; Example 2): 6.1 and 6.1 ± 0.1
- mMC5R inverse agonist, percent decrease from basal (mMC5R; [11]): −10%
- mMC3R pA2 (mMC3R [2]; [10]): 6.0 ± 0.1

Compound: C[C@@H]1NC(=O)[C@H](CN)NC(=O)CN(Cc2ccccc2)C(=O)[C@H](Cc2ccccc2)NC(=O)[C@H](CCCNC(=N)N)NC(=O)[C@@H]2CCCN2C(=O)[C@H]2CCCN2C(=O)[C@H](Cc2ccccc2)NC1=O [MDE9-93c, c[Pro-Arg-Phe-NPhe-Dap-Ala-Phe-DPro]]
- mMC1R pharmacology observed (Partial Agonist) (mMC1R [1]; Example 2): Partial
- mMC5R pharmacology observed (Partial Agonist / Inverse Agonist) (mMC5R; Example 2): Inverse
- mMC5R inverse agonist, percent decrease from basal (mMC5R; [11]): −10%
- mMC3R pA2 (mMC3R [2]; [10]): 7.1 ± 0.1

Compound: C[C@@H]1NC(=O)CN(CCN)C(=O)[C@H](Cc2ccccc2)NC(=O)[C@H](Cc2ccccc2)NC(=O)[C@H](CCCNC(=N)N)NC(=O)[C@@H]2CCCN2C(=O)[C@H]2CCCN2C(=O)[C@H](Cc2ccccc2)NC1=O [MDE9-111c, c[Pro-Arg-Phe-Phe-NDab-Ala-Phe-DPro]]
- mMC1R percent maximal stimulatory response (mMC1R [1]; Example 2): 60% @
- mMC5R inverse agonist, percent decrease from basal (mMC5R): −10%

Compound: C[C@@H]1NC(=O)[C@H](CC(N)=O)NC(=O)[C@H](Cc2ccccc2)NC(=O)[C@H](Cc2ccccc2)NC(=O)[C@H](CCCNC(=N)N)NC(=O)[C@@H]2CCCN2C(=O)[C@H]2CCCN2C(=O)[C@H](Cc2ccccc2)NC1=O [MDE 6-82-3c, c[Pro-Arg-Phe-Phe-Asn-Ala-Phe-DPro]]
- Observed Inverse Agonism? (hMC4R [3]): Yes

Compound: CC(C)[C@@H]1NC(=O)[C@H](CN)NC(=O)[C@H](Cc2ccccc2)NC(=O)[C@H](Cc2ccccc2)NC(=O)[C@H](CCCNC(=N)N)NC(=O)[C@@H]2CCCN2C(=O)[C@H]2CCCN2C(=O)[C@H](Cc2ccccc2)NC1=O [ZMK 2-85, c[Pro-Arg-Phe-Phe-Dap-Val-Phe-DPro]]
- hMC4R pA2 (hMC4R [3]): 7.6 and 7.6 ± 0.06
- Observed Inverse Agonism? (hMC4R [3]): Yes
- mMC4R pA2 (mMC4R [4]): 7.5
- mMC5R pA2 (mMC5R; Example 1, reported herein for the first time): 6.3 and 6.3 ± 0.03
- mMC3R pA2 (mMC3R [2]; [12]): 6.1 and 6.1 ± 0.03

Compound: C[C@@H]1NC(=O)[C@H](CC(N)=O)NC(=O)[C@H](Cc2ccccc2)NC(=O)[C@H](Cc2ccccc2)NC(=O)[C@H](Cc2c[nH]cn2)NC(=O)[C@@H]2CCCN2C(=O)[C@H]2CCCN2C(=O)[C@H](Cc2ccccc2)NC1=O [ZMK 2-96, c[Pro-His-Phe-Phe-Asn-Ala-Phe-DPro]] (cyclo(PHFFNAF[dP]))
- mMC4R Fold Diff (mMC4R [5]): 300
- hMC4R Fold Diff (hMC4R [6]): 300
- hMC4R pA2 (hMC4R [3]): 5.8 and 5.8 ± 0.2
- Observed Inverse Agonism? (hMC4R [3]): Yes
- mMC4R pA2 (mMC4R [4]): 5.3 and 5.3 ± 0.1

Compound: C[C@@H]1NC(=O)[C@H](CC(N)=O)NC(=O)[C@H](Cc2ccccc2)NC(=O)[C@H](Cc2ccc(O)cc2)NC(=O)[C@H](CCCNC(=N)N)NC(=O)[C@@H]2CCCN2C(=O)[C@H]2CCCN2C(=O)[C@H](Cc2ccccc2)NC1=O [ZMK 2-110, c[Pro-Arg-Tyr-Phe-Asn-Ala-Phe-DPro]] (cyclo(PRYFNAF[dP]))
- mMC4R Fold Diff (mMC4R [5]): 100
- hMC4R Fold Diff (hMC4R [6]): 2000
- hMC4R pA2 (hMC4R [3]): 6.5 and 6.5 ± 0.2
- Observed Inverse Agonism? (hMC4R [3]): Yes
- mMC4R pA2 (mMC4R [4]): 6.1 and 6.1 ± 0.03
- mMC5R pharmacology observed in agonist assay (Inverse Agonist) (mMC5R; Example 1): Inverse
- mMC3R pA2 (mMC3R [2]; [12]): 5.8 and 5.8 ± 0.2

Compound: C[C@@H]1NC(=O)[C@H](CC(N)=O)NC(=O)[C@H](Cc2ccccc2)NC(=O)[C@H](Cc2ccccc2)NC(=O)[C@H](CS)NC(=O)[C@@H]2CCCN2C(=O)[C@H]2CCCN2C(=O)[C@H](Cc2ccccc2)NC1=O [ZMK 3-18, c[Pro-Cys-Phe-Phe-Asn-Ala-Phe-DPro]] (cyclo(PCFFNAF[dP]))
- mMC4R Fold Diff (mMC4R [5]): 90
- mMC1R Fold Diff (mMC1R [7]): 3
- mMC1R percent maximal stimulatory response (mMC1R [1]; Example 1, relative to NDP-MSH signal): 46%
- hMC4R Fold Diff (hMC4R [6]): 300
- hMC4R pA2 (hMC4R [3]): 5.8 and 5.8 ± 0.2
- Observed Inverse Agonism? (hMC4R [3]): No
- mMC4R EC50 (nM) (mMC4R [4]; Example 1, agonist, >100,000 = no agonist activity up to 100 μM): unable to stimulate
- mMC4R pA2 (mMC4R [4]): 5.9
- mMC5R pharmacology observed in agonist assay (Inverse Agonist) (mMC5R; Example 1): inverse agonist activity
- mMC5R inverse agonist, percent change from basal (mMC5R; Example 1, @ 100 μM, no sigmoidal dose-response curve): −32%
- mMC3R EC50 (nM) (mMC3R [2]; Example 1, agonist, ± SEM, >100,000 = no agonist activity up to 100 μM): unable to stimulate

Compound: C[C@@H]1NC(=O)[C@H](CN)NC(=O)[C@H](Cc2ccccc2)NC(=O)[C@H](Cc2ccccc2)NC(=O)[C@H](CS)NC(=O)[C@@H]2CCCN2C(=O)[C@H]2CCCN2C(=O)[C@H](Cc2ccccc2)NC1=O [ZMK 3-20, c[Pro-Cys-Phe-Phe-Dap-Ala-Phe-DPro]] (cyclo(PCFF[Dap]AF[dP]))
- mMC4R Fold Diff (mMC4R [5]): 5200
- mMC1R Fold Diff (mMC1R [7]): 6
- mMC3R Fold Diff (mMC3R [8]): 15
- mMC1R stimulation of the receptor, % of the NDP-MSH control (mMC1R [1]; full agonist, maximal stimulation): 98%
- EC50 (mMC1R [1]; Example 1, agonist): 4000 nM
- hMC4R Fold Diff (hMC4R [6]): 2100
- Observed Inverse Agonism? (hMC4R [3]): No
- hMC4R agonist stimulation (hMC4R [3]; up to 100 μM concentrations): unable to stimulate
